Laboratory results taken from patent US20160331779A1 (priority 2015, published 2016).
Several values for one entry are separate records, joined by “and”; a condition that tells them apart may be missing. Equal values may be shown once. Read-outs that look alike come from different tables or passages of the source.

Assays:
[1] = target: alpha-hemolysin toxin of S. aureus (Staphylococcus aureus, UniProt P09616); type: cell-based
[2] = test system: root canal microorganisms; settings: 2.5% NaOCl, after biomechanical preparation; cited from earlier work
[3] = 2.5% NaOCl, cited from earlier work
[4] = test system: Aspergillus flavus; settings: added to the fungal growth medium prior to inoculation; cited from earlier work
[5] = test system: streptokinase enzyme from S. pyogenes; assay: streptokinase inactivation, clot formation enzymatic assay; type: biochemical; settings: streptokinase 175 U/mL incubated 1 hour; fibrin remained insoluble, glass bead remained at top
Description: Inactivation of streptokinase was determined by clot formation enzymatic assay (Sigma Aldrich, St. Louis, Mo.), whereby thrombin converts the soluble fibrinogen into […] (Crew 2013). In the presence of streptokinase enzyme from S. pyogenes, the insoluble fibrin is converted into soluble fibrin fragments. Several hours before the study, streptokinase 175 U/mL) was incubated with the irrigation solution for 1 hour, followed by inactivation of excess irrigation solution by adding an equal volume of 20 mM methionine for 1 hour at room temperature.
In a separate glass tube, fibrinogen solution containing borate buffer, gelatin diluent, and plasminogen were mixed by swirling, and then equilibrated at 37° C. for 3 minutes. Irrigation solution and methionine treated streptokinase was added to the solution, mixed by swirling, and equilibrated at 37° C. for 1 minute prior to the addition of thrombin. The solution was mixed by swirling and equilibrated at 37° C. for approximately 2-3 minutes to allow for clot formation. A 4 mm glass bead was added to the top of the reaction mixture, and the time for the glassbead to touch the bottom of the tube was observed. In this clot assay, 0.001 μg/mL of the hypochlorous acid completely inactivated streptokinase, causing the fibrin to remain insoluble in solution, and the glass bead to remain at the top of the reaction mixture.

[6] = test system: A549 cells; settings: pH 4

Chain of alpha-hemolysin toxin of S. aureus (P09616 27-319 limits assumed): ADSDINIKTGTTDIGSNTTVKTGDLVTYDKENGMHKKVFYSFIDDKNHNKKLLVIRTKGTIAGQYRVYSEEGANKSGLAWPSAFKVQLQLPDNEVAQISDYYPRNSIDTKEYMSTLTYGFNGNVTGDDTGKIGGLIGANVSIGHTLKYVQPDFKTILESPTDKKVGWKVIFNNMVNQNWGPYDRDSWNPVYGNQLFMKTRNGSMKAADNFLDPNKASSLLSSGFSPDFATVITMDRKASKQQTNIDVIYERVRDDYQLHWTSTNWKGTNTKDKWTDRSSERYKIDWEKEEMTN

| Structure (SMILES) | EC50 [1] | root canal microorganisms eliminated [2] [%] | endotoxins reduced ([3]; 7 days after biomechanical preparation) [%] | endotoxins reduced ([3]; immediately after biomechanical preparation) [%] | NaOCl concentration that completely inhibited the fungal growth [4] [mM] | concentration that completely inactivated streptokinase [5] [µg/mL] | Dilution of wound exudate cytotoxic to A549 cells [6] |
| --- | --- | --- | --- | --- | --- | --- | --- |
| [Na+].[O-]Cl [hypochlorite, sodium hypochlorite] | 0.95 ± 0.18 µg/mL and 0.99 ± 0.06 µg/mL | 100 | 83.2 | 88.8 | 2.8 | – | – |
| OCl [HOCl, hypochlorous acid] | – | – | – | – | – | 0.001 | 1:4 |
